Reference: patent US9221773B2, “Benzamide derivatives” (The Translational Genomics Research Institute, priority 2009, dated 2015)

Legend:
Format in all cases: cell-based
SKOV3 cell line = assay: CellTiter-Blue cell viability assay, single agent, SKOV3; details: Homo sapiens, SK-OV-3, SKOV3 ovarian cancer cells, 72 hours treatment
Excerpt: (§1) Cell viability in the presence of varying concentrations of the above listed compounds at different time points was used to assess cytotoxicity and the effect of the compounds on cell proliferation. The SKOV3 cell line was originally isolated in 1973 from the ascitic fluid of a patient with an ovarian cancer. SKOV3 is a hypodiploid human cell line. SKOV3 cells are resistant to tumor necrosis factor and to several cytotoxic drugs including diphtheria toxin, cis-platinum and adriamycin. The A2780 cell line is a human ovarian adenocarcinoma cell line originally derived from a biopsy from an untreated patient. The A2780/CP cell line is a line derived from the A2780 cell line selected for resistance to cis-platinum.
(§2) Cell viability was measured by the CellTiter-Blue® cell viability assay Promega (Madison, Wis.). This procedure measures the conversion of the indicator dye (resazurin) to resorufin, an indicator of cell viability. Following treatment, growth media was removed and cells were incubated with 20 μl of CellTiter-Blue® Reagent and growth media for 1-4 hours at 37° C. Fluorescence values were measured at 535/590 nm using a Beckman-Coulter DTX-880 microplate reader.
(§3) Cells were grown to 70% confluency, trypsinized, counted, and seeded in 96 well flat-bottom plates at a final concentration of 2.5×10^3-5×10^3 cells/well (Day 0). Cells were allowed to incubate in growth media for 24 hours to allow for maximum adhesion. Treatment with the test agents or standard agents began on Day 1 and continued for 72 hours. At the 72 hour timepoint, treatment containing media was removed. Viable cell numbers are quantified by the CellTiter-Blue® cell viability assay as described above. Experiments were repeated at least twice with the same concentrations to determine growth inhibitory activity. Results from these studies were used to calculate an IC50 value (concentration of drug that inhibits cell growth by 50 percent of control) for each compound.
(§4) For single agent and combination studies, data from each experiment was collected and expressed as % Cell Expansion using the following calculation: % Cell Expansion=(ftest/fvehicle)×100
(§5) Where ftest is the fluorescence of the tested sample, and fvehicle is the fluorescence of the vehicle in which the drug is dissolved. Dose response graphs and IC50 values were generated using Prism 4 software (GraphPad) using the following equation: […]

A2780 cell line = assay: CellTiter-Blue cell viability assay, single agent, A2780; details: Homo sapiens, A2780 ovarian adenocarcinoma cells, 72 hours treatment
Excerpt: as §1, §2, §3, §4, §5

A2780/CP cell line = assay: CellTiter-Blue cell viability assay, single agent, A2780/CP; details: Homo sapiens, A2780C/P, A2780/CP cis-platinum resistant cells, 72 hours treatment
Excerpt: as §1, §2, §3, §4, §5

Structure (SMILES)	IC50 (SKOV3 cell line) [nM]	IC50 (A2780 cell line) [nM]	IC50 (A2780/CP cell line) [nM]
CC(C)C(C(=O)Nc1ncc(C(=O)NO)s1)c1ccccc1 (stereo not shown) [Compound 1, N-hydroxy-2-(3-methyl-2-phenylbutanamido)thiazole-5-carboxamide]	40	–	–
CCC(C(=O)Nc1ncc(C(=O)NO)s1)c1ccccc1 (stereo not shown) [Compound 2, N-hydroxy-2-(2-phenylbutanamido)thiazole-5-carboxamide]	46	0.5	4
O=C(NO)c1cnc(NC(=O)C2(c3ccccc3)CC2)s1 [Compound 3, N-hydroxy-2-(1-phenylcyclopropanecarboxamido)thiazole-5-carboxamide]	4100	1200	7500
CC(C)(C(=O)Nc1ncc(C(=O)NO)s1)c1ccccc1 [Compound 4, N-hydroxy-2-(2-methyl-2-phenylpropanamido)thiazole-5-carboxamide]	1300	900	7500
O=C(Cc1ccccc1)Nc1ncc(C(=O)NO)s1 [Compound 5, N-hydroxy-2-(2-phenylacetamido)thiazole-5-carboxamide]	2100	300	1600
O=C(CCc1ccccc1)Nc1ncc(C(=O)NO)s1 [Compound 6, N-hydroxy-2-(3-phenylpropanamido)thiazole-5-carboxamide]	500	300	3200
COC(C(=O)Nc1ncc(C(=O)NO)s1)c1ccccc1 (stereo not shown) [Compound 7, N-hydroxy-2-(2-methoxy-2-phenylacetamido)thiazole-5-carboxamide]	70	40	20
CCC(C(=O)Nc1ncc(C(=O)NO)s1)c1ccc(OC)cc1 (stereo not shown) [Compound 8, N-hydroxy-2-(2-(4-methoxyphenyl)butanamido)thiazole-5-carboxamide]	< 0.1	< 0.1	< 0.1
CC(C(=O)Nc1ncc(C(=O)NO)s1)c1ccccc1 (stereo not shown) [Compound 9, N-hydroxy-2-(2-phenylpropanamido)thiazole-5-carboxamide]	30	30	4.8
CC(C)C(C(=O)Nc1ncc(C(=O)NO)s1)c1ccc(Cl)cc1 (stereo not shown) [Compound 10, 2-(2-(4-chlorophenyl)-3-methylbutanamido)-N-hydroxythiazole-5-carboxamide]	4	1.7	6.2
CC(C)(Cc1ccccc1)C(=O)Nc1ncc(C(=O)NO)s1 [Compound 11, 2-(2,2-dimethyl-3-phenylpropanamido)-N-hydroxythiazole-5-carboxamide]	7500	3800	3800
CC(C)C(C(=O)Nc1ccc(C(=O)NO)cc1)c1ccc(Cl)cc1 (stereo not shown) [Compound 12, 4-(2-(4-chlorophenyl)-3-methylbutanamido)-N-hydroxybenzamide]	40	30	3
CCC(C(=O)Nc1ncc(C(=O)NO)s1)c1ccc(Br)cc1 (stereo not shown) [Compound 13, 2-(2-(4-bromophenyl)butanamido)-N-hydroxythiazole-5-carboxamide]	2.5	0.5	0.08
COCCC(C(=O)Nc1ncc(C(=O)NO)s1)c1ccccc1 (stereo not shown) [Compound 14, N-hydroxy-2-(4-methoxy-2-phenylbutanamido)thiazole-5-carboxamide]	80	2.4	8.7
CCC(C(=O)Nc1ccc(C(=O)NO)cc1)c1ccc(OC)cc1 (stereo not shown) [Compound 15, N-hydroxy-4-(2-(4-methoxyphenyl)butanamido)benzamide]	20	0.04	0.3
CCC(C(=O)Nc1ncc(C(=O)NO)s1)c1ccc(-c2ccccc2)cc1 (stereo not shown) [Compound 17, 2-(2-(biphenyl-4-yl)butanamido)-N-hydroxythiazole-5-carboxamide]	0.2	< 0.1	0.9
CCC(C(=O)Nc1ncc(C(=O)NO)s1)c1ccc(-c2cncnc2)cc1 (stereo not shown) [Compound 18, N-hydroxy-2-(2-(4-(pyrimidin-5-yl)phenyl)butanamido)thiazole-5-carboxamide]	100	440	140
CCC(C(=O)Nc1ncc(C(=O)NO)s1)c1ccc(F)cc1 (stereo not shown) [Compound 19, 2-(2-(4-fluorophenyl)butanamido)-N-hydroxythiazole-5-carboxamide]	8.9	< 0.1	3
CCC(C(=O)Nc1ncc(C(=O)NO)s1)c1cccc(F)c1 (stereo not shown) [Compound 20, 2-(2-(3-fluorophenyl)butanamido)-N-hydroxythiazole-5-carboxamide]	4.3	2.4	100
CC(C)C(C(=O)Nc1ncc(C(=O)NO)s1)c1ccc(O)cc1 (stereo not shown) [Compound 21, N-hydroxy-2-(2-(4-hydroxyphenyl)-3-methylbutanamido)thiazole-5-carboxamide]	20	60	40
CCC(C(=O)Nc1ncc(C(=O)NO)s1)c1cccc(OC)c1 (stereo not shown) [Compound 22, N-hydroxy-2-(2-(3-methoxyphenyl)butanamido)thiazole-5-carboxamide]	30	600	300
CCC(C(=O)Nc1ncc(C(=O)NO)s1)c1ccccc1OC (stereo not shown) [Compound 23, N-hydroxy-2-(2-(2-methoxyphenyl)butanamido)thiazole-5-carboxamide]	2300	100	500
COCCC(C(=O)Nc1ncc(C(=O)NO)s1)c1ccc(-c2ccccc2)cc1 (stereo not shown) [Compound 24, 2-(2-(biphenyl-4-yl)-4-methoxybutanamido)-N-hydroxythiazole-5-carboxamide]	30	20	17
CCC(C(=O)Nc1ccc(C(=O)NO)cc1)c1ccc(Br)cc1 (stereo not shown) [Compound 25, 4-(2-(4-bromophenyl)butanamido)-N-hydroxybenzamide]	100	1.1	20
CCC(C(=O)Nc1ccc(C(=O)NO)cc1)c1ccc(-c2ccccc2)cc1 (stereo not shown) [Compound 26, 4-(2-(biphenyl-4-yl)butanamido)-N-hydroxybenzamide]	1.1	0.3	1.7
COCCC(C(=O)Nc1ccc(C(=O)NO)cc1)c1ccccc1 (stereo not shown) [Compound 27, N-hydroxy-4-(4-methoxy-2-phenylbutanamido)benzamide]	900	16	70
